{"source": "patent US20120214830A1", "about": "“BIOLOGICAL MARKERS PREDICTIVE OF ANTI-CANCER RESPONSE TO INSULIN-LIKE GROWTH FACTOR-1 RECEPTOR KINASE INHIBITORS IN HEPATOCELLULAR CARCINOMA” (OSI Pharmaceuticals, LLC, priority 2011, published 2012)", "key": {"PLC/PRF/5": {"tested_on": "PLC/PRF/5", "assay": "Cell Titer-Glo proliferation assay, 72 h", "type": "cell-based", "conditions": "Homo sapiens, PLC/PRF/5 cells", "protocol": "(§1) Cell lines: Twenty-one HCC cell lines were purchased from either ATCC (HepG2, Hep3B, PLC/PRF/5, SK-Hepl, SNU-182, SNU-387, SNU-398, SNU-423, SNU-449, SNU-475) or Health Science Research Resources Bank (Japan) (HUH-1, HUH-6, HUH-7, HLE, HLF, JHH-1, JHH-2, JHH-4, JHH-5, JHH-6, JHH-7). All the cell lines were maintained in media as described by the vendors. For growth inhibition assays, cells were plated and allowed to proliferate for 24 hours. After 24 hours, cells had reached approximately 15% confluency, at which time serial dilutions of OSI-906 were added and the cells grown for a further 72 hours. Cell viability was assayed using the Cell Titer-Glo reagent (Promega Corp., Madison, Wis.). Proliferation Assay. Proliferation was assayed using Cell Titer Glo assays (Promega) and was determined 72 hours following dosing with OSI-906. The basis of the assay is a luminescent quantitation of ATP present in a cell culture plate well. In essence, the greater the number of viable cells in the well, the greater the level of ATP present. The assay utilizes a substrate that binds ATP to produce a luminescent signal, which can be read on a luminometer. Unless otherwise noted, the manufacturer's instructions were followed exactly. Briefly, on Day 1, cells were plated in […] of 10% serum-containing growth media at a density of 4000 cells/well in a white polystyrene 96 well assay plate. On day 2, cells were treated with 15 μl of 10× concentration of the IGF-1R inhibitor (e.g. OSI-906) or DMSO alone for a final well volume of 150 μl. After 72 h incubation with the inhibitor, the cells were assayed. Results were calculated as a fraction of the DMSO controlled cells."}, "Huh-7": {"tested_on": "Huh-7", "assay": "Cell Titer-Glo proliferation assay, 72 h", "type": "cell-based", "conditions": "Homo sapiens, Huh-7 cells", "protocol": "as §1"}, "JHH-2": {"tested_on": "JHH-2", "assay": "Cell Titer-Glo proliferation assay, 72 h", "type": "cell-based", "conditions": "Homo sapiens, JHH-2 cells", "protocol": "as §1"}, "SNU-423": {"tested_on": "SNU-423", "assay": "Cell Titer-Glo proliferation assay, 72 h", "type": "cell-based", "conditions": "Homo sapiens, SNU-423 cells", "protocol": "as §1"}, "Huh-6": {"tested_on": "Huh-6", "assay": "Cell Titer-Glo proliferation assay, 72 h", "type": "cell-based", "conditions": "Homo sapiens, Huh-6 cells", "protocol": "as §1"}, "JHH-6": {"tested_on": "JHH-6", "assay": "Cell Titer-Glo proliferation assay, 72 h", "type": "cell-based", "conditions": "Homo sapiens, JHH-6 cells", "protocol": "as §1"}, "SNU-182": {"tested_on": "SNU-182", "assay": "Cell Titer-Glo proliferation assay, 72 h", "type": "cell-based", "conditions": "Homo sapiens, SNU-182 cells", "protocol": "as §1"}, "JHH-4": {"tested_on": "JHH-4", "assay": "Cell Titer-Glo proliferation assay, 72 h", "type": "cell-based", "conditions": "Homo sapiens, JHH-4 cells", "protocol": "as §1"}, "SNU-398": {"tested_on": "SNU-398", "assay": "Cell Titer-Glo proliferation assay, 72 h", "type": "cell-based", "conditions": "Homo sapiens, SNU-398 cells", "protocol": "as §1"}, "tumor xenograft": {"tested_on": "tumor xenograft", "conditions": "cited from earlier work"}, "Hep 3B": {"tested_on": "Hep 3B", "assay": "Cell Titer-Glo proliferation assay, 72 h", "type": "cell-based", "conditions": "Homo sapiens, Hep3B, Hep 3B cells", "protocol": "(§2) Two sensitive epithelial cell lines Hep3B (A), JHH-7 (B), one insensitive epithelial cell line JHH-1(C) or one insensitive mesenchymal-like cell line HLF (D) were treated serial dilution of OSI-906 in the presence of Erlotinib for 72 hours, and sensitivity to treatment was measured by proliferation assays.\n(§3) Cell lines: Twenty-one HCC cell lines were purchased from either ATCC (HepG2, Hep3B, PLC/PRF/5, SK-Hepl, SNU-182, SNU-387, SNU-398, SNU-423, SNU-449, SNU-475) or Health Science Research Resources Bank (Japan) (HUH-1, HUH-6, HUH-7, HLE, HLF, JHH-1, JHH-2, JHH-4, JHH-5, JHH-6, JHH-7). All the cell lines were maintained in media as described by the vendors. For growth inhibition assays, cells were plated and allowed to proliferate for 24 hours. After 24 hours, cells had reached approximately 15% confluency, at which time serial dilutions of OSI-906 were added and the cells grown for a further 72 hours. Cell viability was assayed using the Cell Titer-Glo reagent (Promega Corp., Madison, Wis.).\n(§4) Proliferation Assay. Proliferation was assayed using Cell Titer Glo assays (Promega) and was determined 72 hours following dosing with OSI-906. The basis of the assay is a luminescent quantitation of ATP present in a cell culture plate well. In essence, the greater the number of viable cells in the well, the greater the level of ATP present. The assay utilizes a substrate that binds ATP to produce a luminescent signal, which can be read on a luminometer. Unless otherwise noted, the manufacturer's instructions were followed exactly. Briefly, on Day 1, cells were plated in 120 μl of 10% serum-containing growth media at a density of 4000 cells/well in a white polystyrene 96 well assay plate. On day 2, cells were treated with 15 μl of 10× concentration of the IGF-1R inhibitor (e.g. OSI-906) or DMSO alone for a final well volume of 150 μl. After 72 h incubation with the inhibitor, the cells were assayed. Results were calculated as a fraction of the DMSO controlled cells."}, "JHH-7": {"tested_on": "JHH-7", "assay": "Cell Titer-Glo proliferation assay, 72 h", "type": "cell-based", "conditions": "Homo sapiens, JHH7, JHH-7 cells", "protocol": "as §2, §3, §4"}, "JHH-1": {"tested_on": "JHH-1", "assay": "Cell Titer-Glo proliferation assay, 72 h", "type": "cell-based", "conditions": "Homo sapiens, JHH1, JHH-1 cells", "protocol": "as §2, §3, §4"}, "HLF": {"tested_on": "HLF", "assay": "Cell Titer-Glo proliferation assay, 72 h", "type": "cell-based", "conditions": "Homo sapiens, HLF cells", "protocol": "as §2, §3, §4"}}, "note": "Where two headings read alike, the source gives them in different places."}
{"smiles": "C[C@]1(O)C[C@@H](c2nc(-c3ccc4ccc(-c5ccccc5)nc4c3)c3c(N)nccn32)C1", "note": "[OSI-906, cis-3-[8-amino-1-(2-phenyl-quinolin-7-yl)-imidazo[1,5-a]pyrazin-3-yl]-1-methyl-cyclobutanol]", "values": [{"measurement": "inhibition at 5 µM", "setting": "PLC/PRF/5; 5 μM OSI-906, 72 h", "value": "< 40", "unit": "%"}, {"measurement": "EC50", "setting": "PLC/PRF/5; 72 h OSI-906", "value": "> 10", "unit": "µM"}, {"measurement": "inhibition at 5 µM", "setting": "Huh-7; 5 μM OSI-906, 72 h", "value": 70, "unit": "%"}, {"measurement": "EC50", "setting": "Huh-7; 72 h OSI-906", "value": 0.37, "unit": "µM"}, {"measurement": "inhibition at 5 µM", "setting": "JHH-2; 5 μM OSI-906, 72 h", "value": "< 40", "unit": "%"}, {"measurement": "EC50", "setting": "JHH-2; 72 h OSI-906", "value": "> 10", "unit": "µM"}, {"measurement": "inhibition at 5 µM", "setting": "SNU-423; 5 μM OSI-906, 72 h", "value": "< 40", "unit": "%"}, {"measurement": "EC50", "setting": "SNU-423; 72 h OSI-906", "value": "> 10", "unit": "µM"}, {"measurement": "inhibition at 5 µM", "setting": "Huh-6; 5 μM OSI-906, 72 h", "value": 41, "unit": "%"}, {"measurement": "EC50", "setting": "Huh-6; 72 h OSI-906", "value": 0.25, "unit": "µM"}, {"measurement": "inhibition at 5 µM", "setting": "JHH-6; 5 μM OSI-906, 72 h", "value": "< 40", "unit": "%"}, {"measurement": "EC50", "setting": "JHH-6; 72 h OSI-906", "value": "> 10", "unit": "µM"}, {"measurement": "inhibition at 5 µM", "setting": "SNU-182; 5 μM OSI-906, 72 h", "value": "< 40", "unit": "%"}, {"measurement": "EC50", "setting": "SNU-182; 72 h OSI-906", "value": "> 10", "unit": "µM"}, {"measurement": "inhibition at 5 µM", "setting": "JHH-4; 5 μM OSI-906, 72 h", "value": "< 40", "unit": "%"}, {"measurement": "EC50", "setting": "JHH-4; 72 h OSI-906", "value": "> 10", "unit": "µM"}, {"measurement": "inhibition at 5 µM", "setting": "SNU-398; 5 μM OSI-906, 72 h", "value": "< 40", "unit": "%"}, {"measurement": "EC50", "setting": "SNU-398; 72 h OSI-906", "value": "> 10", "unit": "µM"}, {"measurement": "tumor growth inhibition (TGI)", "setting": "tumor xenograft; xenografts of tumor cells with high sensitivity to OSI-906 in culture in vitro", "value": "high pencentage tumor growth inhibition"}, {"measurement": "tumor growth inhibition (TGI)", "setting": "tumor xenograft; xenografts of tumor cells with low sensitivity to OSI-906 in culture in vitro", "value": "only a low pencentage tumor growth inhibition"}, {"measurement": "inhibition at 5 µM", "setting": "Hep 3B; 5 μM OSI-906, 72 h", "value": 67, "unit": "%"}, {"measurement": "EC50", "setting": "Hep 3B; 72 h OSI-906", "value": 0.35, "unit": "µM"}, {"measurement": "inhibition at 5 µM", "setting": "JHH-7; 5 μM OSI-906, 72 h", "value": 70, "unit": "%"}, {"measurement": "EC50", "setting": "JHH-7; 72 h OSI-906", "value": 0.94, "unit": "µM"}, {"measurement": "inhibition at 5 µM", "setting": "JHH-1; 5 μM OSI-906, 72 h", "value": "< 40", "unit": "%"}, {"measurement": "EC50", "setting": "JHH-1; 72 h OSI-906", "value": "> 10", "unit": "µM"}, {"measurement": "inhibition at 5 µM", "setting": "HLF; 5 μM OSI-906, 72 h", "value": "< 40", "unit": "%"}, {"measurement": "EC50", "setting": "HLF; 72 h OSI-906", "value": "> 10", "unit": "µM"}]}
